Test results as given in patent US20230100838A1 (Revolution Medicines, Inc., priority 2019, published 2023).

Legend:
Assay type in all cases: binding
[1] = target: T1, GDP-loaded K-Ras (1-169) G12D, C51S, C80L, C118S (Homo sapiens, UniProt P01116, C118S/C51S/C80L/G12D); test: K-Ras G12D(GDP) cross-linking assay (conjugate formation, TOF mass spectrometry); conditions: Table 5; percent covalently modified K-Ras by MS; room temperature; typical compound conc. 2, 10, 25 μM, endpoints 1 and 24 h
T1 construct: GDP-loaded K-Ras (1-169) G12D, C51S, C80L, C118S
Procedure, shortened: (§1)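 5 μM protein (final, from 50 μM) in HEPES/NaCl/MgCl2 buffer pH 7.4 with compound typically at 2, 10 and 25 μM, room temperature, 1 and 24 h endpoints; formic acid quench. Intact-protein LC–TOF MS; percent modification is covalent adduct peak height over total K-Ras peak height.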

[2] = target: T2, GDP-loaded K-Ras (1-169) C51S, C80L, C118S (Homo sapiens, UniProt P01116, C118S/C51S/C80L); test: K-Ras WT (GDP) cross-linking assay (conjugate formation, TOF mass spectrometry); conditions: Table 5; percent covalently modified K-Ras by MS; room temperature; typical compound conc. 2, 10, 25 μM, endpoints 1 and 24 h
T2 construct: GDP-loaded K-Ras (1-169) C51S, C80L, C118S
Procedure, shortened: as §1

K-Ras G12S = K-Ras G12S (Homo sapiens, UniProt P01116, G12S); test: K-Ras G12S cross-linking assay (comparable procedure, conjugate formation, TOF mass spectrometry); conditions: Table 5, percent covalently modified K-Ras by MS
Procedure, shortened: as §1

| SMILES | G12D x-linking (%) [1] | WT x-linking (%) [2] | G12S x-linking (%) (K-Ras G12S) |
| --- | --- | --- | --- |
| Cc1ccnc(C(C)C)c1-n1c(=O)nc(N2CCN(C(=O)[C@H]3CN3)C[C@@H]2C)c2cc(F)c(-c3c(O)cccc3F)nc21 [Example 65, 4-((S)-4-((R)-aziridine-2-carbonyl)-2-methylpiperazin-1-yl)-6-fluoro-7-(2-fluoro-6-hydroxyphenyl)-1-(2-isopropyl-4-methylpyridin-3-yl)pyrido[2,3-d]pyrimidin-2(1H)-one] | + (0 < x ≤ 20) | + (0 < x ≤ 20) | + (0 < x ≤ 10) |
| Cc1ccnc(C(C)C)c1-n1c(=O)nc(N2CCN(C(=O)[C@@H]3CN3)C[C@@H]2C)c2cc(F)c(-c3c(O)cccc3F)nc21 [Example 66, 4-((S)-4-((S)-aziridine-2-carbonyl)-2-methylpiperazin-1-yl)-6-fluoro-7-(2-fluoro-6-hydroxyphenyl)-1-(2-isopropyl-4-methylpyridin-3-yl)pyrido[2,3-d]pyrimidin-2(1H)-one] | + (0 < x ≤ 20) | + (0 < x ≤ 20) | + (0 < x ≤ 10) |
| Cc1ccnc(C(C)C)c1-n1c(=O)nc(N2CCC(CN=C=NCc3ccccc3)CC2)c2cc(F)c(-c3ccccc3F)nc21 [Example 69, 4-(4-((((benzylimino)methylene)amino)methyl)piperidin-1-yl)-6-fluoro-7-(2-fluorophenyl)-1-(2-isopropyl-4-methylpyridin-3-yl)pyrido[2,3-d]pyrimidin-2(1H)-one] | + (0 < x ≤ 20) | + (0 < x ≤ 20) | + (0 < x ≤ 10) |
| COCCN=C=NCC1CCN(c2nc(=O)n(-c3c(C)ccnc3C(C)C)c3nc(-c4ccccc4F)c(F)cc23)CC1 [Example 70, 6-fluoro-7-(2-fluorophenyl)-1-(2-isopropyl-4-methylpyridin-3-yl)-4-(4-(((((2-methoxyethyl)imino)methylene)amino)methyl)piperidin-1-yl)pyrido[2,3-d]pyrimidin-2(1H)-one] | ++ (20 < x ≤ 40) | ++ (20 < x ≤ 100) | ++ (10 < x ≤ 100) |
| CCCN=C=NCC1CCN(c2nc(=O)n(-c3c(C)ccnc3C(C)C)c3nc(-c4ccccc4F)c(F)cc23)CC1 [Example 71, 6-fluoro-7-(2-fluorophenyl)-1-(2-isopropyl-4-methylpyridin-3-yl)-4-(4-((((propylimino)methylene)amino)methyl)piperidin-1-yl)pyrido[2,3-d]pyrimidin-2(1H)-one] | ++ (20 < x ≤ 40) | ++ (20 < x ≤ 100) | ++ (10 < x ≤ 100) |
| COCCN=C=N[C@H]1C[C@H](Nc2nc(OC[C@@H]3CCCN3C)nc3c2CCN(c2cccc4cccc(C)c24)C3)C1 [Example 72, N-((1r,3S)-3-((((2-methoxyethyl)imino)methylene)amino)cyclobutyl)-7-(8-methylnaphthalen-1-yl)-2-(((S)-1-methylpyrrolidin-2-yl)methoxy)-5,6,7,8-tetrahydropyrido[3,4-d]pyrimidin-4-amine] | +++ (40 < x ≤ 100) | ++ (20 < x ≤ 100) | ++ (10 < x ≤ 100) |
| COCCN=C=N[C@@H]1CCN(c2nc(OC[C@@H]3CCCN3C)nc3c2CCN(c2cccc4cccc(C)c24)C3)C1 [Example 73, N-(2-methoxyethyl)-N—((R)-1-(7-(8-methylnaphthalen-1-yl)-2-(((S)-1-methylpyrrolidin-2-yl)methoxy)-5,6,7,8-tetrahydropyrido[3,4-d]pyrimidin-4-yl)pyrrolidin-3-yl)methanediimine] | +++ (40 < x ≤ 100) | ++ (20 < x ≤ 100) | ++ (10 < x ≤ 100) |
| COCCN=C=N[C@H]1CCN(c2nc(OC[C@@H]3CCCN3C)nc3c2CCN(c2cccc4cccc(C)c24)C3)C1 [Example 74, N-(2-methoxyethyl)-N—((S)-1-(7-(8-methylnaphthalen-1-yl)-2-(((S)-1-methylpyrrolidin-2-yl)methoxy)-5,6,7,8-tetrahydropyrido[3,4-d]pyrimidin-4-yl)pyrrolidin-3-yl)methanediimine] | +++ (40 < x ≤ 100) | ++ (20 < x ≤ 100) | ++ (10 < x ≤ 100) |
| COCCN=C=N[C@@H]1CCN(c2nc(OC[C@@H]3CCCN3C)nc3c2CCN(c2cccc4cccc(C)c24)C3)C[C@@H]1CC#N [Example 75, 2-((3S,4R)-4-((((2-methoxyethyl)imino)methylene)amino)-1-(7-(8-methylnaphthalen-1-yl)-2-(((S)-1-methylpyrrolidin-2-yl)methoxy)-5,6,7,8-tetrahydropyrido[3,4-d]pyrimidin-4-yl)piperidin-3-yl)acetonitrile] | +++ (40 < x ≤ 100) | + (0 < x ≤ 20) | ++ (10 < x ≤ 100) |
| COCCN=C=NCC1CCN(c2nc(OC[C@@H]3CCCN3C)nc3c2CCN(c2cccc4cccc(C)c24)C3)CC1 [Example 77, N-(2-methoxyethyl)-N-((1-(7-(8-methylnaphthalen-1-yl)-2-(((S)-1-methylpyrrolidin-2-yl)methoxy)-5,6,7,8-tetrahydropyrido[3,4-d]pyrimidin-4-yl)piperidin-4-yl)methyl)methanediimine] | +++ (40 < x ≤ 100) | ++ (20 < x ≤ 100) | ++ (10 < x ≤ 100) |
| COCCN=C=N[C@H]1CC[C@H](N(C)c2nc(OC[C@@H]3CCCN3C)nc3c2CCN(c2cccc4cccc(C)c24)C3)CC1 [Example 78, N-((1r,4S)-4-((((2-methoxyethyl)imino)methylene)amino)cyclohexyl)-N-methyl-7-(8-methylnaphthalen-1-yl)-2-(((S)-1-methylpyrrolidin-2-yl)methoxy)-5,6,7,8-tetrahydropyrido[3,4-d]pyrimidin-4-amine] | ++ (20 < x ≤ 40) | + (0 < x ≤ 20) | + (0 < x ≤ 10) |
| COCCN=C=N[C@H]1CC[C@@H](N(C)c2nc(OC[C@@H]3CCCN3C)nc3c2CCN(c2cccc4cccc(C)c24)C3)CC1 [Example 79, N-((1s,4R)-4-((((2-methoxyethyl)imino)methylene)amino)cyclohexyl)-N-methyl-7-(8-methylnaphthalen-1-yl)-2-(((S)-1-methylpyrrolidin-2-yl)methoxy)-5,6,7,8-tetrahydropyrido[3,4-d]pyrimidin-4-amine] | +++ (40 < x ≤ 100) | ++ (20 < x ≤ 100) | ++ (10 < x ≤ 100) |
| COCC1(N=C=NC2CCN(c3nc(OC[C@@H]4CCCN4C)nc4c3CCN(c3cccc5cccc(C)c35)C4)CC2)CC1 [Example 80, N-(1-(methoxymethyl)cyclopropyl)-N-(1-(7-(8-methylnaphthalen-1-yl)-2-(((S)-1-methylpyrrolidin-2-yl)methoxy)-5,6,7,8-tetrahydropyrido[3,4-d]pyrimidin-4-yl)piperidin-4-yl)methanediimine] | ++ (20 < x ≤ 40) | + (0 < x ≤ 20) | ++ (10 < x ≤ 100) |
| COc1ccccc1CN=C=NC1CCN(c2nc(OC[C@@H]3CCCN3C)nc3c2CCN(c2cccc4cccc(C)c24)C3)CC1 [Example 81, N-(2-methoxybenzyl)-N-(1-(7-(8-methylnaphthalen-1-yl)-2-(((S)-1-methylpyrrolidin-2-yl)methoxy)-5,6,7,8-tetrahydropyrido[3,4-d]pyrimidin-4-yl)piperidin-4-yl)methanediimine] | + (0 < x ≤ 20) | + (0 < x ≤ 20) | + (0 < x ≤ 10) |
| COc1ccc(CN=C=NC2CCN(c3nc(OC[C@@H]4CCCN4C)nc4c3CCN(c3cccc5cccc(C)c35)C4)CC2)c(OC)c1 [Example 82, N-(2,4-dimethoxybenzyl)-N-(1-(7-(8-methylnaphthalen-1-yl)-2-(((S)-1-methylpyrrolidin-2-yl)methoxy)-5,6,7,8-tetrahydropyrido[3,4-d]pyrimidin-4-yl)piperidin-4-yl)methanediimine] | + (0 < x ≤ 20) | + (0 < x ≤ 20) | + (0 < x ≤ 10) |
| Cc1cccc2cccc(N3CCc4c(nc(OC[C@@H]5CCCN5C)nc4N4CCC(N=C=NC5CCN(C)CC5)CC4)C3)c12 [Example 83, N-(1-(7-(8-methylnaphthalen-1-yl)-2-(((S)-1-methylpyrrolidin-2-yl)methoxy)-5,6,7,8-tetrahydropyrido[3,4-d]pyrimidin-4-yl)piperidin-4-yl)-N-(1-methylpiperidin-4-yl)methanediimine] | +++ (40 < x ≤ 100) | ++ (20 < x ≤ 100) | ++ (10 < x ≤ 100) |
| Cc1cccc2cccc(N3CCc4c(nc(OC[C@@H]5CCCN5C)nc4N4CCC(N=C=NC5CCN(c6ccccc6)CC5)CC4)C3)c12 [Example 84, N-(1-(7-(8-methylnaphthalen-1-yl)-2-(((S)-1-methylpyrrolidin-2-yl)methoxy)-5,6,7,8-tetrahydropyrido[3,4-d]pyrimidin-4-yl)piperidin-4-yl)-N-(1-phenylpiperidin-4-yl)methanediimine] | + (0 < x ≤ 20) | + (0 < x ≤ 20) | + (0 < x ≤ 10) |
